System: Blattalla germanica
Test: Test Example 3: filter paper with sucrose bait, death rate of Blattalla germanica
Format: in vivo
Conditions: 500 ppm test solution, 0.7 ml on filter paper; 2 male imagoes; after 6 days
Method: A formulation of any one of the present compounds (3) and (4) obtained according to Formulation Example 5 was diluted with water to prepare a test solution having 500 ppm of the active ingredient.
A filter paper having a diameter of 5.5 cm was spread on the bottom of a polyethylene cup having a diameter of 5.5 cm and 0.7 ml of the test solution was added dropwise onto the filter paper. As a bait, 30 mg of sucrose was uniformly placed on the filter paper. Into the polyethylene cup, 2 male imagoes of Blattalla germanica were released and the cup was sealed with a lid. After 6 days, the number of surviving or dead Blattalla germanica was counted and the death rate of the pest was calculated.

| Structure (SMILES) | pest death rate [%] |
| --- | --- |
| CC(C)OCCS(=O)(=O)C(C#N)CCC(F)(F)C(F)(F)F (centres unmarked) [(3)] | 100 |
| COC(C)(C)CS(=O)(=O)C(C#N)CCC(F)(F)C(F)(F)F (centres unmarked) [(4)] | 100 |

— US20120184613A1, “SULFUR-CONTAINING COMPOUND AND USE THEREOF” (SUMITOMO CHEMICAL COMPANY, LIMITED, priority 2008, published 2012)
